In ChEMBL document CHEMBL1255477, “In vitro properties of BAL30072, a novel siderophore sulfactam with activity against multiresistant gram-negative bacilli” (Antimicrob Agents Chemother, 2010):
Values joined by “and” are separate entries in the source; they are usually repeats but may differ in a detail not shown here. Identical values can stand only once. Active and inactive are the calls of the source.

What was measured:
[1] = tested on: Enterobacter cloacae; assay: Microbicidal activity against Enterobacter cloacae S4741B selected after 4 times MIC compound exposure; type: functional
[2] = tested on: Pseudomonas aeruginosa; assay: Antimicrobial activity against Pseudomonas aeruginosa 621 assessed as number of passages required for MIC to rise above 4 times original MIC; type: functional
[3] = tested on: Acinetobacter baumannii; assay: Antimicrobial activity against Acinetobacter baumannii HPA74510 assessed as appearance of colony at 4 times MIC concentration; type: functional, organism-based
[4] = tested on: Escherichia coli; assay: Antimicrobial activity against Escherichia coli Libyien harboring beta-lactamase CMY-2 by broth dilution method; type: functional
[5] = tested on: Pseudomonas aeruginosa; assay: Antimicrobial activity against Pseudomonas aeruginosa 621 assessed as appearance of colony at 4 times MIC concentration; type: functional
[6] = tested on: Klebsiella pneumoniae; assay: Antimicrobial activity against Klebsiella pneumoniae 1357E harboring beta-lactamase TEM-10 by broth dilution method; type: functional
[7] = tested on: Proteus penneri; assay: Antimicrobial activity against Proteus penneri by broth dilution method; type: functional
[8] = tested on: Pseudomonas aeruginosa; assay: microbe, parasite or virus in culture; details: PAO1
Description: Antimicrobial activity against Pseudomonas aeruginosa PAO1 by broth dilution method

[9] = tested on: Escherichia coli; assay: Antimicrobial activity against Escherichia coli W3110 assessed as appearance of colony at 4 times MIC concentration; type: functional, organism-based
[10] = tested on: Pseudomonas aeruginosa; assay: Antimicrobial activity against Pseudomonas aeruginosa HPA10586 harboring beta-lactamase VIM-1 by broth dilution method; type: functional
[11] = tested on: Acinetobacter sp.; assay: Antimicrobial activity against Acinetobacter sp. by broth dilution method; type: functional
[12] = tested on: Pseudomonas aeruginosa; assay: Antimicrobial activity against Pseudomonas aeruginosa BA(C1-106) selected after 25 ug/ml of compound exposure by broth dilution method; type: functional
[13] = tested on: Klebsiella pneumoniae; assay: Antimicrobial activity against Klebsiella pneumoniae 26768WU harboring beta-lactamase SHV-5 by broth dilution method; type: functional
[14] = tested on: Pseudomonas aeruginosa; assay: microbe, parasite or virus in culture; details: 18S/H
Description: Antimicrobial activity against Pseudomonas aeruginosa 18S/H harboring beta-lactamase Class C by broth dilution method

[15] = tested on: Acinetobacter baumannii; assay: Antimicrobial activity against Acinetobacter baumannii HPA 327009 harboring beta-lactamase OXA-25 by broth dilution method; type: functional
[16] = tested on: Pseudomonas aeruginosa; assay: Antimicrobial activity against Pseudomonas aeruginosa HPA996 harboring beta-lactamase VIM-2 by broth dilution method; type: functional
[17] = tested on: Pseudomonas aeruginosa; assay: Antimicrobial activity against Pseudomonas aeruginosa BA(C2-107) selected after 25 ug/ml of compound exposure by broth dilution method; type: functional
[18] = tested on: Klebsiella pneumoniae; assay: Antimicrobial activity against Klebsiella pneumoniae 1338665 assessed as number of passages required for MIC to rise above 4 times original MIC; type: functional
[19] = tested on: Pseudomonas aeruginosa; assay: Antimicrobial activity against Pseudomonas aeruginosa 860 assessed as appearance of colony at 4 times MIC concentration; type: functional
[20] = tested on: Klebsiella pneumoniae; assay: Antimicrobial activity against Klebsiella pneumoniae CRE harboring beta-lactamase KPC-2 by broth dilution method; type: functional
[21] = tested on: Escherichia coli; assay: Antimicrobial activity against Escherichia coli by broth dilution method; type: functional
[22] = tested on: Pseudomonas aeruginosa; assay: microbe, parasite or virus in culture; details: BA
Description: Antimicrobial activity against Pseudomonas aeruginosa BA harboring beta-lactamase Class C by broth dilution method

[23] = tested on: Pseudomonas aeruginosa; assay: Antimicrobial activity against Pseudomonas aeruginosa HPA101-1477 harboring beta-lactamase IMP-1 by broth dilution method; type: functional
[24] = tested on: Pseudomonas aeruginosa; assay: Antimicrobial activity against Pseudomonas aeruginosa by broth dilution method; type: functional
[25] = tested on: Enterobacter cloacae; assay: Antimicrobial activity against Enterobacter cloacae 908R harboring beta-lactamase AmpC by broth dilution method; type: functional
[26] = tested on: Providencia rettgeri; assay: Antimicrobial activity against Providencia rettgeri by broth dilution method; type: functional
[27] = tested on: Acinetobacter junii; assay: Antimicrobial activity against Acinetobacter junii 15218 assessed as number of passages required for MIC to rise above 4 times original MIC; type: functional
[28] = tested on: Pseudomonas aeruginosa; assay: Antimicrobial activity against Pseudomonas aeruginosa BA assessed as number of passages required for MIC to rise above 4 times original MIC; type: functional
[29] = tested on: Acinetobacter baumannii; assay: Antimicrobial activity against Acinetobacter baumannii HPA74510 assessed as number of passages required for MIC to rise above 4 times original MIC; type: functional
[30] = tested on: Pseudomonas aeruginosa; assay: Antimicrobial activity against Pseudomonas aeruginosa BA by broth dilution method; type: functional; details: Pseudomonas aeruginosa, BA; read-out: MIC
[31] = tested on: Escherichia coli; assay: Antimicrobial activity against Escherichia coli nmcA harboring beta-lactamase NMCA by broth dilution method; type: functional
[32] = tested on: Escherichia coli; assay: Antimicrobial activity against Escherichia coli CF102 harboring beta-lactamase TEM-3 by broth dilution method; type: functional
[33] = tested on: Klebsiella oxytoca; assay: Antimicrobial activity against Klebsiella oxytoca by broth dilution method; type: functional
[34] = tested on: Serratia marcescens; assay: Antimicrobial activity against Serratia marcescens by broth dilution method; type: functional
[35] = tested on: Pseudomonas aeruginosa; assay: Antimicrobial activity against Pseudomonas aeruginosa 1973E harboring beta-lactamase PSE-1 and class C enzymes by broth dilution method; type: functional
[36] = tested on: Pseudomonas aeruginosa; assay: Antimicrobial activity against oprD protein deficient Pseudomonas aeruginosa C2 by broth dilution method; type: functional
[37] = tested on: Serratia marcescens; assay: Antimicrobial activity against Serratia marcescens S6 harboring beta-lactamase SME-1.AmpC by broth dilution method; type: functional
[38] = tested on: Klebsiella pneumoniae; assay: Antimicrobial activity against Klebsiella pneumoniae by broth dilution method; type: functional
[39] = tested on: Proteus mirabilis; assay: Antimicrobial activity against Proteus mirabilis by broth dilution method; type: functional
[40] = tested on: Escherichia coli; assay: Antimicrobial activity against Escherichia coli A harboring beta-lactamase CTX-M 15 by broth dilution method; type: functional
[41] = tested on: Enterobacter cloacae; assay: Antimicrobial activity against Enterobacter cloacae by broth dilution method; type: functional
[42] = tested on: Acinetobacter baumannii; assay: Antimicrobial activity against Acinetobacter baumannii HPA74510 harboring beta-lactamase IMP-4 by broth dilution method; type: functional
[43] = tested on: Pseudomonas aeruginosa; assay: Antimicrobial activity against mexAB-oprM protein and mexCD-oprJ deficient Pseudomonas aeruginosa PAO253 overexpressing MexEF-OprN gene by broth dilution method; type: functional
[44] = tested on: Klebsiella pneumoniae; assay: Antimicrobial activity against Klebsiella pneumoniae YC harboring beta-lactamase KPC-2,TEM-1and SHV-2 by broth dilution method; type: functional
[45] = tested on: Klebsiella oxytoca; assay: Antimicrobial activity against Klebsiella oxytoca 1028E harboring beta-lactamase K1 by broth dilution method; type: functional
[46] = tested on: Providencia rettgeri; assay: Antimicrobial activity against Providencia rettgeri J96 harboring beta-lactamase IMP-1 by broth dilution method; type: functional
[47] = tested on: Serratia marcescens; assay: Antimicrobial activity against Serratia marcescens 1T9 harboring beta-lactamase Class C by broth dilution method; type: functional
[48] = tested on: Stenotrophomonas maltophilia; assay: Antimicrobial activity against Stenotrophomonas maltophilia 1AC736 assessed as number of passages required for MIC to rise above 4 times original MIC; type: functional
[49] = tested on: Acinetobacter baumannii; assay: Antimicrobial activity against Acinetobacter baumannii HPA I-16 harboring beta-lactamase OXA-27 by broth dilution method; type: functional
[50] = tested on: Pseudomonas aeruginosa; assay: Antimicrobial activity against mexAB-oprM protein and mexZ deficient Pseudomonas aeruginosa PAO267 by broth dilution method; type: functional
[51] = tested on: Pseudomonas aeruginosa; assay: Antimicrobial activity against mexAB-oprM, mexCD-oprJ, mexEF-oprN, mexJK, mexXY, opmH and pscC gene deficient Pseudomonas aeruginosa PAO750 by broth dilution method; type: functional
[52] = tested on: Pseudomonas aeruginosa; assay: Antimicrobial activity against Pseudomonas aeruginosa B4 by broth dilution method; type: functional
[53] = tested on: Escherichia coli; assay: Antimicrobial activity against Escherichia coli HB101 harboring beta-lactamase TEM-5 by broth dilution method; type: functional

CC1(C)[C@H](NC(=O)/C(=N\OCc2cc(=O)c(O)cn2O)c2csc(N)n2)C(=O)N1OS(=O)(=O)O (stereo in doubt)
4 passages: Activity [48]
8 µg/mL: MIC [17] | MIC90 [24]
2.8 frequency and 2.5 frequency: Activity [5]
active: Activity [3] | Activity [9]
2 µg/mL: MIC [8] | MIC [10] | MIC [14] | MIC [23] | MIC50 [24] | MIC50 [34]
7 frequency: Activity [19]
≤ 0.06 µg/mL: MIC [7] | MIC50 [7] | MIC [20] | MIC [26] | MIC50 [26] | MIC90 [26] | MIC [37] | MIC [39] | MIC50 [39] | MIC [50] | MIC [51]
0.5 µg/mL: MIC50 [11] | MIC [22] | MIC [43] | MIC [45] | MIC [49] | MIC [52]
16 µg/mL: MIC [12] | MIC50 [38]
5 passages: Activity [2] | Activity [28]
0.25 µg/mL: MIC90 [7] | MIC [36] | MIC90 [39] | MIC [42]
9 passages: Activity [18]
> 32 µg/mL: MIC [13] | MIC90 [21] | MIC90 [38] | MIC90 [41] | MIC [44]
0.125 µg/mL: MIC50 [33] | MIC [40] | MIC [46]
20 passages: Activity [27]
1 µg/mL: MIC [16] | MIC50 [21] | MIC [30] | MIC [31] | MIC [47]
32 µg/mL: MIC [53]
4 µg/mL: MBC [1] | MIC [4] | MIC [6] | MIC90 [11] | MIC [15] | MIC [25] | MIC [32] | MIC90 [33] | MIC90 [34] | MIC [35] | MIC50 [41]
6 passages: Activity [29]
